#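 Results reflect a 48-hour exposure of cells in 96-well plates to compound at five concentrations. At the GI50, growth is halved. TGI: total growth inhibition.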
# Legend:
# Test in all cases: NCI tumour cell line growth inhibition, 48 h
# HT29 colon = test system: HT29 colon
# OVCAR-4 ovarian = test system: OVCAR-4 ovarian
# MOLT-4 leukemia = test system: MOLT-4 leukemia
# 786-0 renal = test system: 786-0 renal
# UACC-257 melanoma = test system: UACC-257 melanoma
# A498 renal = test system: A498 renal
# SK-OV-3 ovarian = test system: SK-OV-3 ovarian
# SN12C renal = test system: SN12C renal
# HOP-92 NSCLC = test system: HOP-92 NSCLC
# HS 578T breast = test system: HS 578T breast
Structure (SMILES),TGI (HT29 colon) [µM],TGI (OVCAR-4 ovarian) [µM],TGI (MOLT-4 leukemia) [µM],TGI (786-0 renal) [µM],TGI (UACC-257 melanoma) [µM],TGI (A498 renal) [µM],TGI (SK-OV-3 ovarian) [µM],TGI (SN12C renal) [µM],TGI (HOP-92 NSCLC) [µM],TGI (HS 578T breast) [µM],GI50 (HOP-92 NSCLC) [µM],GI50 (OVCAR-4 ovarian) [µM],GI50 (MOLT-4 leukemia) [µM],GI50 (A498 renal) [µM],GI50 (SK-OV-3 ovarian) [µM],GI50 (SN12C renal) [µM]
COC(=O)[C@@](C)(COC(=O)C(C)(C)C)NC(=O)OC(C)(C)C,> 100,> 100,> 100,> 100,> 100,> 100,> 100,> 100,–,–,–,–,–,–,–,–
CN(C)CCNC(=O)c1cccc2cc3cc(O)ccc3nc12,4.95,6.58,3.17,–,2.94,2.42,4.27,4.65,3.81,–,–,–,–,–,–,–
COc1ccc2nc3c(c(NCCCN(C)C)c2c1)CCCC3,27.6,18.5,14.2,28.8,31.3,36.3,58.4,47.2,21.1,–,–,–,–,–,–,–
CC(=O)NC1=C(NCCCl)C(=O)c2ccccc2C1=O,75.1,> 100,75.5,> 100,33.7,–,> 100,> 100,> 100,> 100,–,–,–,–,–,–
Cc1ccnc2nc(N)ccc12,> 100,> 100,> 100,> 100,> 100,> 100,> 100,> 100,–,> 100,–,–,–,–,–,–
Cc1ccc(Sc2ccccc2[N+](=O)[O-])cc1,62.2,> 100,81.4,–,67.8,> 100,> 100,> 100,59.2,–,–,–,–,–,–,–
[O-][n+]1c(CN2CCCCC2)nc2cccc3c2c1-c1ccccc1-3,51.8,77.4,> 100,51.5,39.4,38.3,92.5,46.1,85.6,–,–,–,–,–,–,–
CC12CCCCC1=[N+]([O-])C(C)(C)N2O (configuration not stated),> 100,> 100,–,> 100,> 100,–,> 100,> 100,> 100,> 100,–,–,–,–,–,–
O=NN(CCF)C(=O)NC1CC2CCC1C2 (configuration not stated),> 100,> 100,> 100,–,> 100,> 100,> 100,> 100,> 100,–,–,–,–,–,–,–
COCC1OC(S(=O)(=O)c2ccccc2)C(O)C(OC)C1OC (configuration not stated),> 100,> 100,> 100,> 100,> 100,–,> 100,> 100,–,> 100,–,–,–,–,–,–
CN(C)c1ccc(/C=C/C(=O)N[C@@H]2C(=O)N3[C@@H]2SC(C)(C)[C@@H]3C(=O)O)cc1,> 100,> 100,> 100,> 100,> 100,> 100,–,> 100,–,> 100,–,–,–,–,–,–
C=C(C)C1CC/C(C)=C/CC[C@]2(C)O[C@@H]2CCC2=CC1OC2=O (some centres not stated),–,> 100,30.6,–,–,> 100,> 100,> 100,> 100,–,14.4,> 100,12.1,23.2,> 100,78.8
CCOC(=O)c1cc2c(OCc3ccccc3)c(OC)cc3c2c(n1)N(c1ccc(OC)cc1)C(C)C3 (configuration not stated),–,> 50,> 50,> 50,–,> 50,> 50,> 50,42.9,–,–,–,–,–,–,–
Cc1ccc(-n2cc(-c3ccc(Cl)cc3)c3c(NN)ncnc32)cc1,19,19.2,11.5,11.1,16.1,–,44.2,13.9,9.04,–,–,–,–,–,–,–
O=c1c2ccccc2nc(-c2ccccc2)n1NC(=S)Nc1ccc(Cl)cc1,> 100,> 100,> 100,> 100,> 100,> 100,> 100,> 100,> 100,–,–,–,–,–,–,–
Nc1nccc(NCC2(CO)CCC2)n1,> 100,–,> 100,> 100,> 100,> 100,–,> 100,> 100,> 100,–,–,–,–,–,–
CCN(CC)CCCNC(=O)c1cc2cc(NC(=O)c3cc4cc([N+](=O)[O-])ccc4[nH]3)ccc2[nH]1,> 100,> 100,–,> 100,76.9,75.7,> 100,> 100,> 100,–,–,–,–,–,–,–
CC(=O)OC12c3ccccc3C(c3ccccc31)C1C(=O)N(c3ccccn3)C(=O)C12 (configuration not stated),> 100,> 100,> 100,> 100,> 100,–,> 100,> 100,–,> 100,–,–,–,–,–,–
CN(C(=O)c1ccc2c(c1)sc1c(=O)n(C)c3ccccc3c12)c1ccccc1,> 100,> 100,> 100,> 100,> 100,–,> 100,> 100,> 100,–,–,–,–,–,–,–
CCC(COC(=O)CC[C@@H](NC(=O)C(C)NC(=O)C(C)OC1C(O)C(CO)OC(OCc2ccccc2)C1NC(C)=O)C(N)=O)NC1c2ccccc2Nc2cccc([N+](=O)[O-])c21 (some centres not stated),> 100,> 100,> 100,> 100,> 100,–,> 100,> 100,> 100,–,–,–,–,–,–,–
Cc1cn(C2CC(CCCO)C(CO)O2)c(=O)[nH]c1=O (configuration not stated),> 100,> 100,> 100,> 100,> 100,> 100,> 100,> 100,–,–,–,–,> 100,–,–,–
O=C1CC(C(CC(=O)c2ccccc2)c2ccccc2)C(=O)c2ccccc2N1 (configuration not stated),> 100,–,61.2,> 100,> 100,> 100,> 100,> 100,–,> 100,–,–,–,–,–,–
COc1cccc(/C(Cl)=C(\C=O)c2cccc(OC)c2)c1,24.9,55.3,78.3,38,42.4,36.3,41.7,34.7,36,–,–,–,–,–,–,–
Cc1nnc2n(c1=O)CCN2C,> 100,> 100,> 100,> 100,–,–,> 100,> 100,> 100,> 100,–,–,–,–,–,–

# Source: PubChem BioAssay (NCI)
